# Read-outs that look alike come from different tables or passages of the source.
# Experiments:
# Type in all cases: cell-based
# K12PE cell line = assay: Proliferation assay; settings: for IC50: read-out: IC50 concentration, proliferation
# Experimental: (§1) Proliferation and viability assays: Cell growth curves were determined by monitoring the viability of cells with Trypan blue exclusion on a Vi-Cell-XR (Becton Dickinson, Franklin Lakes, N.J., USA). Proliferation assays were performed in triplicate at least three times (n=3) using (3H)-thymidine incorporation. All data were plotted and analyzed using GraphPad Prism 7 (GraphPad Software, La Jolla, Calif., USA) software, represented as the mean with an error determined as ±s.d.
# as §1, with “assay.” for “assays:”, “Cell lines” for “Proliferation assays”, “plated” for “performed”, “in 96-well round-bottom plates with the indicated drug concentrations or knockdown cells. […]” for “at least three times (n=3) using (3H)-thymidine incorporation.”
# [1] = system: AMO1-PR (pomalidomide resistant) cell line; assay: Proliferation assay
# Experimental: as §1
# as §1, with “assay.” for “assays:”, “Cell lines” for “Proliferation assays”, “plated” for “performed”, “in 96-well round-bottom plates with the indicated drug concentrations or knockdown cells. […]” for “at least three times (n=3) using (3H)-thymidine incorporation.”
# K12PE-PR cell line = assay: Proliferation assay
# Experimental: as §1
# as §1, with “assay.” for “assays:”, “Cell lines” for “Proliferation assays”, “plated” for “performed”, “in 96-well round-bottom plates with the indicated drug concentrations or knockdown cells. […]” for “at least three times (n=3) using (3H)-thymidine incorporation.”
# AMO1 cell line = assay: Proliferation assay; settings: AMO1; for IC50: read-out: IC50 concentration, proliferation
# Experimental: as §1
# as §1, with “assay.” for “assays:”, “Cell lines” for “Proliferation assays”, “plated” for “performed”, “in 96-well round-bottom plates with the indicated drug concentrations or knockdown cells. […]” for “at least three times (n=3) using (3H)-thymidine incorporation.”
# MM cell lines = assay: Cell cycle analysis (PI staining, flow cytometry) in response to Compound 5; settings: for sub-G1 population: vehicle 5.02, cell line not named; for G2-M population: vehicle 16.3; for G0-G1 population: vehicle 69.2
# Experimental: (§2) Flow cytometry: Annexin-V Alexa Fluor 488-conjugated antibody (Thermo Scientific, Waltham, Mass., USA) and To-Pro-3 (Thermo Scientific, Waltham, Mass., USA) were used according to the manufacturer's protocol and processed using Flow Jo software for at least three independent experiments. For cell cycle analysis, cells were stained with Propidium Iodide (PI) staining kit (Abcam, Cambridge, Mass., USA) and analysis was performed on Flow Jo V10 software. Staining of mitotic marker pHH3-Ser^10 was also performed by pHH3-Ser^10 and PI dual staining.
# (§3) The changes in phospho Ser10-histone H3 which is a specific marker for G2-M phase using flow cytometry were measured. […] Nocodazole synchronizes cells in G2-M phase of cell cycle. At time points 30 minutes, 2 hours and 6 hours post rescue from overnight Nocodazole treatment, PLK1 levels were higher compared to vehicle condition (FIG. 3). Then, due to rescue from cell cycle synchronization post Nocodazole treatment, PLK1 levels normalized. In response to Compound 5 treatment, while Ikaros degradation began to happen after 30 minutes of treatments, downregulation of PLK1 and CDC25C levels was evident at 48 hours post treatment. In response to Nocodazole and Compound 5 combination treatment, the decrease in PLK1 levels was accelerated. Changes in cleaved caspase 3 inversely correlated with PLK1 levels, with an increase in cleaved caspase 3 at 48 and 72 hours post Compound 5 treatment with a decrease in PLK1 levels. Cell cycle studies matched with these time points. […] In case of Nocodazole and Compound 5 combination treatment, an accelerated decrease in G2-M cells and a higher increase in sub-G1 cells was observed.
# [2] = system: AMO1 NEK2 shRNA (NEK2 knocked-down) cells; assay: Proliferation assay in NEK2 knocked-down cells
# Experimental: (§4) Proliferation and viability assay. Cell growth curves were determined by monitoring the viability of cells with Trypan blue exclusion on a Vi-Cell-XR (Becton Dickinson, Franklin Lakes, N.J., USA). Cell lines were plated in triplicate in 96-well round-bottom plates with the indicated drug concentrations or knockdown cells. Proliferation assays were performed in triplicate at least three times (n=3) using either the WST-1 tetrazolium salt (Roche Applied Science) reagent used according to the manufacturer's specifications or by (3H)-thymidine incorporation as previously described (Bjorklund et al., Blood Cancer Journal 5, e354, 2015). All data were plotted and analyzed using GraphPad Prism 7 (GraphPad Software, La Jolla, Calif., USA) software, represented as the mean with an error determined as ±s.d.
# (§5) To further confirm the synergistic effect, shRNA knockdown was combined with either Compound 5 or Compound 6 treatment. Expression of control and NEK2 shRNA in AMO1 cell lines was induced, followed by exposure of the cells to increasing concentrations of Compound 5 and Compound 6. The results were measured through a proliferation assay.
# phospho Ser10-histone H3 = phospho Ser10-histone H3 (G2-M marker) flow cytometry; settings: vehicle 16.5
# Experimental: as §2, §3
# AMO1 cells = assay: Apoptosis by Annexin V and Topro staining; settings: AMO-1 cells
# Experimental: as §2
# The PLK1 inhibitor BI2536 and Compound 5 were tested for their activity as individual agents and in combination in AMO1 parental and AMO1-PR cell lines. […] Changes in apoptosis were analyzed using the single agent treatments and their combination using Annexin V and Topro staining. […] Changes in Ikaros and pro-survival signaling in these cell lines was analyzed in response to BI2536 and Compound 5 after 24 and 72 hours of treatment (FIG. 5K).
# AMO1 control shRNA cells = assay: Proliferation assay in control shRNA cells; settings: Homo sapiens; control shRNA AMO1 cells; read-out: IC50, proliferation
# Experimental: as §4, §5
# [3] = system: PLK1 signaling in MM1.S cells; assay: Immunoblot of PLK1 signaling; settings: FIG. 2C
# Experimental: Immunoblotting: Immunoblot analysis was performed using WES kits, (Protein Simple, San Jose, Calif., USA) at least two times each (n≥2), where the best representative is shown.
# The effects of pomalidomide in isogenic sensitive (EJM) and resistant (EJM-PR) and MM1.S cell lines was analyzed. […] To determine the role of PLK1 in pomalidomide response, EJM and EJM-PR cell lines were treated with pomalidomide and analyzed changes in PLK1 levels and downstream signaling. […] The changes in PLK1 transcript levels were further examined in response to pomalidomide treatment in MM1. […] Confocal microscopy was performed to study changes in PLK1 and CDC25C staining in MM1.S cells and a decrease in PLK1 levels and simultaneous decrease in CDC25C staining in response to pomalidomide and Compound 5 treatments was observed. […] Further analysis of the ChIP-seq datasets of Aiolos confirmed binding of Aiolos on TSS of PLK1 with overlapping transcriptional activation H3K27Ac signature extrapolated from publicly available ChIP-seq datasets in GM12878 cell line (Encode project). Since changes in PLK1 levels are due to decrease in PLK1 transcription in response to antiproliferative compounds, the effects of Aiolos and Ikaros knockdowns on PLK1 levels using MM1.S cells with inducible expression of Aiolos and Ikaros shRNAs were analyzed. Both Aiolos and Ikaros knock down lead to a decrease in PLK1 levels (FIG. 2F), indicating transcriptional regulation of PLK1 by substrates of Cereblon.
# [4] = system: BIRC5 (Survivin) in MM1.S cell line; assay: BIRC5 levels in response to Compound 5; settings: 48 and 72 hours, followed by onset of apoptosis
# Experimental: BIRC5 levels decreased in response to Compound 5 treatment at 48 and 72 hours, followed by an onset of apoptosis in MM1.S cell line (FIG. 23B).
# H929-PR cell line = assay: Proliferation assay; settings: isogenic sensitive/resistant comparison, read-out: IC50 concentration, proliferation
# Experimental: as §4
# [5] = system: Ikaros (IKZF1), Aiolos (IKZF3) and ZFP91; assay: Substrate degradation by immunoblotting; settings: single agent
# Experimental: Effect of NEK2 downregulation on Compound 5 and Compound 6-induced substrate degradation. […] The effect of NEK2 knockdown on pomalidomide mediated substrate degradation was also studied. Control and NEK2 shRNA cells were incubated to varying concentrations of pomalidomide. Pomalidomide treatment degraded Ikaros (IKZF1), Aiolos (IKZF3) and ZFP91 in a concentration dependent manner in control shRNA lines. A similar pattern of substrate degradation was maintained in NEK2 knockdown cell lines.
# H929 cell line = assay: Proliferation assay; settings: Homo sapiens, read-out: IC50 concentration, proliferation
# Experimental: as §1, §4
# Mc-CAR cell line = assay: Proliferation assay; settings: 72 h; MC-CAR; Day 3 post treatment; NEK2 inhibitor; read-out: IC50 concentration, proliferation
# Experimental: as §1, §4
# [6] = system: FOXM1 in K12PE-PR cell line; assay: FOXM1 expression after BIRC5 inhibition; settings: FIG. 26B
# Description: (§6) Inhibition of BIRC5 by YM155 also downregulates FOXM1 and pro-survival signaling.
# [7] = system: FOXM1 in AMO1-PR cell line; assay: FOXM1 expression after BIRC5 inhibition; settings: FIG. 26B
# Description: as §6
structure (smiles),measurement,setting,value
"O=C1CC[C@H](N2Cc3c(OCc4ccc(CN5CCOCC5)cc4)cccc3C2=O)C(=O)N1 [Compound 5, (S)-3-(4-((4-(morpholinomethyl)benzyl)oxy)-1-oxoisoindolin-2-yl)piperidine-2,6-dione]",Synergy analysis (Calcusyn) of combination with JQ1 on proliferation,"K12PE cell line; K12PE cells, in combination with JQ1",synergistic
same,Synergy (Calcusyn) with NEK2 inhibitors (JH295 and rac-CCT 250863) on proliferation,[1]; NEK2 inhibitor 0.016-10 μM,strong synergy
same,Combination analysis (Calcusyn) with YM155 on proliferation,[1]; in combination with YM155,synergistic activity
same,Synergy with trametinib on proliferation,[1]; in combination with trametinib,strong synergy
same,Synergy of combination with JQ1 on proliferation,"K12PE-PR cell line; Pom resistant K12PE-PR, in combination with JQ1",synergistically decreased proliferation
same,Synergy (Calcusyn) with NEK2 inhibitors (JH295 and rac-CCT 250863) on proliferation,AMO1 cell line; NEK2 inhibitor 0.016-10 μM,strong synergy
same,Combination analysis (Calcusyn) with YM155 on proliferation,AMO1 cell line; in combination with YM155,synergistic activity
same,Synergy with trametinib on proliferation,AMO1 cell line; in combination with trametinib,strong synergy
same,sub-G1 population,MM cell lines; 10 nM,4.98
same,G2-M population,MM cell lines; 10 nM,12.3
same,G0-G1 population,MM cell lines; 10 nM,75.8
same,sub-G1 population,MM cell lines; 30 nM,11.3
same,G2-M population,MM cell lines; 30 nM,6.94
same,G0-G1 population,MM cell lines; 30 nM,78.3
same,sub-G1 population,MM cell lines; 100 nM,13.9
same,G2-M population,MM cell lines; 100 nM,6.27
same,G0-G1 population,MM cell lines; 100 nM,75.1
same,IC50,"[2]; Homo sapiens, NEK2 knocked-down AMO1 cells",18.7 nM
same,Increase of activity by NEK2 knockdown in comparison to control shRNA cell line,[2]; IC50 control cells vs NEK2 knocked-down cells,5 fold
same,levels of phospho Ser10-histone H3,phospho Ser10-histone H3; 10 nM,9.3
same,levels of phospho Ser10-histone H3,phospho Ser10-histone H3; 30 nM,6.37
same,levels of phospho Ser10-histone H3,phospho Ser10-histone H3; 100 nM,4.53
same,late apoptosis,AMO1 cells; vehicle 2.24%,3.07%
same,early apoptosis,AMO1 cells; vehicle 2.69%,4.86%
same,IC50,AMO1 control shRNA cells,105 nM
same,Dose giving decrease in PLK1 levels and downstream signaling relative to pomalidomide,[3],ten times lower dose
same,PLK1 signaling,"[3]; MMS.1 cells, increasing concentrations",dose dependent decrease
same,BIRC5 levels,[4],decreased
"C#CC(=O)Nc1ccc2c(c1)/C(=C/c1[nH]c(CC)nc1C)C(=O)N2 [JH295, (Z)—N-(3-((2-ethyl-4-methyl-1H-imidazol-5-yl)methylene)-2-oxoindolin-5-yl)propiolamide]",IC50,"K12PE cell line; 72 h, K12PE, Day 3 post treatment, NEK2 inhibitor",4000 nM
same,IC50,"K12PE cell line; K12PE, isogenic sensitive/resistant comparison",4000 nM
same,IC50,"[1]; isogenic sensitive/resistant comparison, read-out: IC50 concentration, proliferation",310 nM
same,IC50,"K12PE-PR cell line; K12PE-PR, isogenic sensitive/resistant comparison, read-out: IC50 concentration, proliferation",10800 nM
same,IC50,"AMO1 cell line; Homo sapiens, 72 h, Day 3 post treatment, NEK2 inhibitor",480 nM
same,IC50,"AMO1 cell line; Homo sapiens, isogenic sensitive/resistant comparison",480 nM
same,IC50,H929-PR cell line,270 nM
same,"substrate degradation (Ikaros, Aiolos, ZFP91) in comparison to DMSO control",[5],No effect
same,IC50,"H929 cell line; NCI-H929, 72 h, Day 3 post treatment, NEK2 inhibitor",370 nM
same,IC50,"H929 cell line; NCI-H929, isogenic sensitive/resistant comparison",370 nM
same,IC50,Mc-CAR cell line,560 nM
"COCCn1c2c([n+](Cc3cnccn3)c1C)C(=O)c1ccccc1C2=O.[Br-] [YM155, 1-(2-methoxyethyl)-2-methyl-4,9-dioxo-3-(pyrazin-2-ylmethyl)-4,9-dihydro-1H-naphtho[2,3-d]imidazol-3-ium bromide]",FOXM1 expression,[6],downregulated FOXM1 expression in a dose dependent manner
same,FOXM1 expression,[7],downregulated FOXM1 expression in a dose dependent manner
same,EC50,"K12PE cell line; K12PE, BIRC5 inhibitor",1.47 nM
same,EC50,[1]; BIRC5 inhibitor,0.12 nM
same,EC50,"K12PE-PR cell line; K12PE-PR, BIRC5 inhibitor",1.07 nM
same,EC50,"AMO1 cell line; Homo sapiens, BIRC5 inhibitor",1.09 nM
